Consider one substance from patent US20090297545A1, “IMMUNOMODULATORY DAIRY PEPTIDES AND USES THEREOF” (Universite Laval, priority 2008, published 2009).

What all share (assay type): cell-based, BALB/c mice
For experiment [1], the system named is murine splenocytes. Put plainly: Cytokine secretion in splenocyte culture supernatants by ELISA, Example I. As for the experimental part:
Cytokine analysis. The supernatants from 72 h-splenocytes cultures were collected and their cytokine content was measured. The optimal incubation times were determined from preliminary assays with peptide fractions. The levels of IL-4, IL-10 and IFN-γ were determined using commercial ELISA kits (BioLegend, San Diego, Calif., USA) according to the manufacturer's instructions. Interleukin-2 levels were also measured by ELISA using a commercial kit (BioSource International, Camarillo, Calif., USA) according to the manufacturer's instructions. The results are the means of four or more assays (three wells per sample). The detection limits for IL-2, IL-4, IL-10 and IFN-γ were <8.0, <1.0, <30.0 and <4.0 pg/mL, respectively.
Cytokine analysis were performed at concentration leading to optimal spleen cells proliferation of peptide β-Lg f139-148 (SEQ ID NO. 1) (2000 μg/mL) as reported in Tables 2 and 3. The sequence β-Lg f78-83 (SEQ ID NO. 10), resulting in no effect on the cytokine secretion of resting- and ConA-stimulated murine splenocytes (results not shown), was used as control at concentration of 10 μg/mL for statistical analysis. The effects of the selected peptide on cytokine secretion from splenocytes cultured in the absence and presence of 0.5 μg/mL of ConA are shown in Table 5.

Experiment [2] relates to murine splenocytes. The experiment in a line: Ex vivo murine splenocytes proliferation assay (Alamar Blue), Example I. As for the experimental part: Ex vivo murine splenocytes proliferation assay. The splenocytes were isolated from 6- to 12-weeks-old female BALB/c mice (Charles River, St-Constant, QC, Canada) and cultured in the absence and presence of suboptimal concentration of ConA (0.5 μg/mL). The peptides were solubilized in complete RPMI medium, agitated overnight at 4° C. then the solutions were adjusted to pH 7. Thereafter, the peptide solutions were added at various final concentrations (10-2000 μg/mL, protein basis) to the wells of 96-well round-bottomed microplates, which were incubated at 37° C. at 80% relative humidity in a 5% CO2 atmosphere for 72 h (with ConA) or 96 h (without ConA). Cell proliferation was evaluated by the reduction of the fluorochrome Alamar Blue™ (BioSource international, Camarillo, Calif., USA), which was added into the wells for the last 24 h of the incubation periods. The fluorescence of the supernatants was monitored at an excitation wavelength of 560 nm and an emission wavelength of 590 nm using a fluorometer (Fluoroscan Ascent, Thermo Electron Inc., Milford, Mass., USA). The assays were performed in triplicate (three wells per sample) and data are expressed as stimulation indices (SI), and calculated using the following equations: […]

The subject of experiment [3] is murine splenocytes. Described as above. Particulars: peptide 2000 μg/mL, FIG. 2.
The mark [4] stands for this setting: splenocytes with ConA 0.5 μg mL^−1, control peptide 10 μg/mL.
Setting [5] is: splenocytes without ConA, control peptide 10 μg/mL.

Where “and” joins values, the source holds several entries; their conditions need not be identical. Equal values may be shown once.

“IPAVFK (listed as Homo sapiens) [β-Lg f78-83, β-lactoglobulin fragment 78-83 used as control peptide, reference compound]”: the “Effect on the cytokine secretion of resting- and ConA-stimulated murine splenocytes” value in experiment [1] (results not shown) is reported as “no effect”. Further, in experiment [1] (setting [4]), the “IFN-γ secretion in supernatant” value worked out at 252.9 pg/mL, the “IL-2 secretion in supernatant” value was found to be 15.6 pg/mL, the “IL-4 secretion in supernatant” value was 4.4 pg/mL and the “IL-10 secretion in supernatant” value is under 30.0 pg/mL. Also, in experiment [1] (setting [5]), the “IFN-γ secretion in supernatant” value is 7.1 pg/mL, the “IL-2 secretion in supernatant” value stood at 10.0 pg/mL, the “IL-4 secretion in supernatant” value was under 1.0 pg/mL and the “IL-10 secretion in supernatant” value was under 30.0 pg/mL. For the same substance, the “Effect on the proliferation of ConA-stimulated murine splenocytes” value in experiment [2] (all concentrations studied (10-2000 μg/mL), ConA 0.5 μg/mL, FIG. 1B) is given as “no effect”. For the same substance, the “Effect on the proliferation of resting murine splenocytes” value in experiment [2] (all concentrations studied (10-2000 μg/mL), FIG. 1A) is reported as “no effect”. For the same substance, the “Stimulation index, proliferation of murine splenocytes in the presence of Concavanalin A” value in experiment [2] (peptide 10 μg mL^−1, 72 h, ConA 0.5 μg/mL) was 2.10 and 1.91 and 1.93 and 1.68. Further, the “Stimulation index, proliferation of resting murine splenocytes” value in experiment [2] (peptide 10 μg mL^−1, 96 h, without ConA) was 0.98 and 1.00 and 1.11 and 1.02 and 1.04. In addition, the “Microscopic appearance of resting- and ConA-stimulated cultured cells” value in experiment [3] is “no effect on the appearance of cultured cells”.
